The numbers were not newly measured in PubChem BioAssay AID1259409 (Chemical Carcinogenesis Research Information System (CCRIS), 2018), which cites them from elsewhere.

The data set deals with rodent chemically induced tumor inhibition, incidence and multiplicity. In words: CCRIS tumor inhibitor studies. The settings on record: for outcome: Carcinogen: N-methyl-N-nitrosourea (684-93-5), study duration 4 wks, Route [Inhibitor]: Oral, Species: Rat, Strain/Sex: F344/DuCrj/Male, Dose [Carcinogen]: 2 mg/rat, 3 x a wk for 4 wks.

With `O=C(O[C@@H]1Cc2c(O)cc(O)cc2O[C@@H]1c1cc(O)c(O)c(O)c1)c1cc(O)c(O)c(O)c1`, the “tumour outcome (control, treated, inhibition, significance)” value is recorded as 100%, 100%, 0%, not significant (Carcinogen: 4-(METHYLNITROSAMINO)-1-(3-PYRIDYL)-1-BUTANONE, 64091-91-4, Dose [Inhibitor]: 0, 560 PPM IN DRINKING WATER FOR 13 WK BEGINNING 2 WK PRIOR TO CARCINOGEN TREATMENT (STUDY DURATION: 18 WK), Route [Inhibitor]: ORAL, Species: MOUSE, Strain/Sex: STRAIN-A/FEMALE, Target Tissue: Type of Lesion: LUNG: ADENOMA, Dose [Carcinogen]: 11.65 MG/KG 3/WK FOR 10 WK, Promoter: NONE USED); 100%, 70%, 30%, not calculated (Carcinogen: 4-NITROQUINOLINE-N-OXIDE (56-57-5), Dose [Inhibitor]: 0.05% IN DIET FOR 25 WKS (STUDY DURATION: 25 WKS), Route [Inhibitor]: DIET, Species: MOUSE, Strain/Sex: DDY/MALE (10,10)/(10,?), Target Tissue: Type of Lesion: LUNG, Dose [Carcinogen]: 10 MG/KG BW ONCE, Promoter: CACODYLIC ACID (75-60-5)); 14/14 (100%), 14/14 (100%), 0%, not significant (Carcinogen: 7,12-DIMETHYLBENZ[A]ANTHRACENE, 57-97-6, Dose [Inhibitor]: 0, 0.5% (81% EGCG) IN DIET OF RATS WITH TUMORS AT 13 WK POST CARCINOGEN DOSE (STUDY DURATION: 36 WK), Route [Inhibitor]: ORAL, Species: RAT, Strain/Sex: SPRAGUE-DAWLEY/FEMALE, Target Tissue: Type of Lesion: MAMMARY GLAND: CARCINOMA, Dose [Carcinogen]: 50 MG/KG BW ONCE, Promoter: NONE USED); 11/14 (79%), 12/14 (86%), -9%, not significant (Carcinogen: 7,12-DIMETHYLBENZ[A]ANTHRACENE, 57-97-6, Dose [Inhibitor]: 0, 0.5% (81% EGCG) IN DIET OF RATS WITHOUT TUMORS AT 13 WK POST CARCINOGEN DOSE (STUDY DURATION: 36 WK), Route [Inhibitor]: ORAL, Species: RAT, Strain/Sex: SPRAGUE-DAWLEY/FEMALE, Target Tissue: Type of Lesion: MAMMARY GLAND: CARCINOMA, Dose [Carcinogen]: 50 MG/KG BW ONCE, Promoter: NONE USED); 14/14 (100%), 14/14 (100%), 0%, not significant (Carcinogen: 7,12-DIMETHYLBENZ[A]ANTHRACENE, 57-97-6, Dose [Inhibitor]: 0, 0.5% POLYPHEN E (58.4% EGCG) IN DIET OF RATS WITH TUMORS AT 13 WK POST CARCINOGEN DOSE (STUDY DURATION: 36 WK), Route [Inhibitor]: ORAL, Species: RAT, Strain/Sex: SPRAGUE-DAWLEY/FEMALE, Target Tissue: Type of Lesion: MAMMARY GLAND: CARCINOMA, Dose [Carcinogen]: 50 MG/KG BW ONCE, Promoter: NONE USED); 100%, 100%, 0%, not significant (Carcinogen: 7,12-DIMETHYLBENZ[A]ANTHRACENE, 57-97-6, Dose [Inhibitor]: 0, 5 UMOL IN 0.2 ML ACETONE 1/D FOR 7 D PRIOR TO CARCINOGEN DOSE (STUDY DURATION: 16 WK), Route [Inhibitor]: DERMAL, Species: MOUSE, Strain/Sex: SENCAR/FEMALE, Target Tissue: Type of Lesion: SKIN: TUMOR, Dose [Carcinogen]: 10 NMOL IN 0.2 ML ACETONE ONCE, Promoter: 12-O-TETRADECANOYLPHORBOL-13-ACETATE, 16561-29-8). In addition, the “tumour outcome (control, treated, inhibition, significance)” value is recorded as 63%, 20%, 68%, p<0.001 (Carcinogen: N-ETHYL-N'-NITRO-N-NITROSGUANIDINE, 4245-77-6, Dose [Inhibitor]: 0, 0.005% IN DIET FOR 12 WK BEGINNING POST CARCINOGEN TREATMENT (STUDY DURATION: 16 WK), Route [Inhibitor]: ORAL, Species: MOUSE, Strain/Sex: C57BL/MALE, Target Tissue: Type of Lesion: DUODENUM: TUMOR, Dose [Carcinogen]: 100 MG/L IN DRINKING WATER FOR 4 WK, Promoter: NONE USED); 63%, 20%, 68%, p<0.001 (Carcinogen: N-ETHYL-N'-NITRO-N-NITROSOGUANIDINE, 4245-77-6, Dose [Inhibitor]: 0, 0.005% IN DIET FOR 12 WK BEGINNING POST CARCINOGEN TREATMENT (STUDY DURATION: 16 WK), Route [Inhibitor]: ORAL, Species: MOUSE, Strain/Sex: C57BL/MALE, Target Tissue: Type of Lesion: DUODENUM: TUMOR, Dose [Carcinogen]: 100 MG/L IN DRINKING WATER FOR 4 WK, Promoter: NONE USED); 10/16 (63%), 3/15 (20%), 68%, p<0.001 (Carcinogen: N-ETHYL-N'-NITRO-N-NITROSOGUANIDINE, 4245-77-6, Dose [Inhibitor]: 0.005% (0.15 MG/MOUSE/D) IN DRINKING WATER FOR 12 WK POST CARCINOGEN DOSE (STUDY DURATION: 16 WK), Route [Inhibitor]: ORAL, Species: MOUSE, Strain/Sex: C57BL/MALE, Target Tissue: Type of Lesion: DUODENUM: TUMOR, Dose [Carcinogen]: 100 MG/L DRINKING WATER FOR 4 WK, Promoter: NONE USED); 62%, 31%, 50%, p<0.05 (Carcinogen: N-METHYL-N'-NITRO-N-NITROSOGUANIDINE, 70-25-7, Dose [Inhibitor]: 0, 0.05% IN DIET FOR 16 WK BEGINNING POST CARCINOGEN TREATMENT (STUDY DURATION: 44 WK), Route [Inhibitor]: ORAL, Species: RAT, Strain/Sex: WISTAR/MALE, Target Tissue: Type of Lesion: STOMACH: TUMOR, Dose [Carcinogen]: 80 MG/L IN DRINKING WATER FOR 28 WK, Promoter: NONE USED); 21/34 (62%), 11/35 (31%), 50%, p<0.05 (Carcinogen: N-METHYL-N'-NITRO-N-NITROSOGUANIDINE, 70-25-7, Dose [Inhibitor]: 0, 0.05% IN DRINKING WATER FOR 15 WK (STUDY DURATION: 44 WK), Route [Inhibitor]: ORAL, Species: RAT, Strain/Sex: WISTAR/MALE, Target Tissue: Type of Lesion: GLANDULAR STOMACH: TUMOR, Dose [Carcinogen]: 80 MG/L IN DRINKING WATER FOR 28 WK, Promoter: NONE USED); 21/34 (62%), 11/35 (31%), 50%, p<0.05 (Carcinogen: N-METHYL-N'-NITRO-N-NITROSOGUANIDINE, 70-25-7, Dose [Inhibitor]: 0, 0.05% IN DRINKING WATER FOR 15 WK BEGINNING POST CARCINOGEN TREATMENT (STUDY DURATION: 44 WK), Route [Inhibitor]: ORAL, Species: RAT, Strain/Sex: WISTAR/MALE, Target Tissue: Type of Lesion: GLANDULAR STOMACH: TUMOR, Dose [Carcinogen]: 80 MG/L IN DRINKING WATER FOR 28 WK, Promoter: NONE USED). Also, the “tumour outcome (control, treated, inhibition, significance)” value was 15/18 (83%), 14/25 (56%), 33%, p<0.05 (Carcinogen: NONE USED, Dose [Inhibitor]: 0, 0.05% IN DRINKING WATER AD LIBITUM FOR 58 WK (STUDY DURATION: 65 WK), Route [Inhibitor]: ORAL, Species: MOUSE, Strain/Sex: C3H/HENCRJ/MALE, Target Tissue: Type of Lesion: LIVER: HEPATOMA, Promoter: NONE USED) and 15/18 (83%), 12/23 (52%), 37%, p<0.05 (Carcinogen: NONE USED, Dose [Inhibitor]: 0, 0.1% IN DRINKING WATER AD LIBITUM FOR 58 WK (STUDY DURATION: 65 WK), Route [Inhibitor]: ORAL, Species: MOUSE, Strain/Sex: C3H/HENCRJ/MALE, Target Tissue: Type of Lesion: LIVER: HEPATOMA, Promoter: NONE USED).
As for `C[Si](C)(C)c1cc(C(=O)Nc2ccc(C(=O)O)cc2)cc([Si](C)(C)C)c1`, the outcome is given as “colon: tumors” (Dose [Inhibitor]: 0, 0.8 mg/kg by gavage 5 d/wk for 1 wk, Dose [Inhibitor]: 0, 0.8 mg/kg by gavage 5 d/wk for 1 wk); “colon: tumors” (Dose [Inhibitor]: 0, 0.8 mg/kg by gavage 5 d/wk for 4 wks, Dose [Inhibitor]: 0, 0.8 mg/kg by gavage 5 d/wk for 4 wks); “colon: tumors” (Dose [Inhibitor]: 0, 8 mg/kg by gavage 5 d/wk for 1 wk, Dose [Inhibitor]: 0, 8 mg/kg by gavage 5 d/wk for 1 wk); “colon: tumors” (Dose [Inhibitor]: 0, 8 mg/kg by gavage 5 d/wk for 4 wks, Dose [Inhibitor]: 0, 8 mg/kg by gavage 5 d/wk for 4 wks).
